For test [1], the target named is T1, PpCHK1 (Physcomitrium patens, UniProt A0A068JFF6). The test is described as follows: competition of unlabeled CKs with 3H-iP, tobacco leaf microsomes expressing the receptor. Type of test: binding.
Test [2] addresses T2, PpCHK2 (Physcomitrium patens, UniProt A0A068JG96). The test is described as above. It counts as binding.
Test [3] concerns the target T3, SmCHK4a (Selaginella moellendorffii, UniProt D8R9F4). Described as above. It counts as binding.
Test [4] concerns the target T4, SmCHK6 (Selaginella moellendorffii, UniProt D8SUD5). The description is as above. Type of test: binding.
Test [5] concerns the target PaCHK1. Described as above. It counts as binding, Picea abies.
Test [6] addresses PaCHK2. Described as above. Type of test: binding, Picea abies.
The next test has as its system AHK3. The settings on record: AHK3 from A. thaliana; cited from earlier work.
In test [7] the target is T1, PpCHK1. The test is described as follows: direct 3H-iP binding (saturation, pH dependence), tobacco leaf microsomes. As to conditions: saturation curve of 3H-iP specific binding.
Test [8] has as its target T2, PpCHK2. Described as above. As to conditions: saturation curve of 3H-iP specific binding.
The target in test [9] is T3, SmCHK4a. The description is as above. The settings on record: saturation curve of 3H-iP specific binding.
Test [10] addresses T4, SmCHK6. Described as above. As to conditions: saturation curve of 3H-iP specific binding.
In test [11] the target is PaCHK1. Described as above. Also on record: species or system Picea abies. The settings on record: saturation curve of 3H-iP specific binding.
The target in test [12] is PaCHK2. The description is as above. Also on record: species or system Picea abies. As to conditions: saturation curve of 3H-iP specific binding.
Test [13] concerns PpCHK3. Nature of the test: specific binding of 3H-iP, tobacco leaf microsomes. Further details: species or system Physcomitrium patens. As to conditions: PpCHK3 sensory module; expression confirmed by immunoblotting. The method, then: (§1) We experimentally analyzed the ligand-binding properties of CHK receptors from P. patens, S. moellendorffii, and P. abies using a radiolabeled ligand method and microsomes from tobacco leaves where these receptors were transiently expressed. Tritiated isopentenyladenine served as the labeled CK. PpCHK1 and 2 proteins from P. patens were tested in a full-length version, and otherwise sensory modules (SMs) flanked by TM helices were used. PpCHK1-3 represented canonical CHK receptor group, while PpCHK4 was a representative of the related sister group. […]
(§2) Of the eight cloned receptors, we detected no CK binding for PpCHK3 and PpCHK4, although expression of these proteins was confirmed by immunoblotting against the fused GFP domain (Figure 2). […]
(§3) pK7WGF2 and pB7FWG2 constructs were transformed to Agrobacterium tumefaciens strain GV3101 and transiently expressed in Nicotiana benthamiana leaves. […] Transient expression was assessed by means of immunoblotting of microsomal membranes with antibodies against GFP (Agrisera, AS15 2987) diluted 1:5000 as described in [15]. Background binding of ^3H-iP by endogenous CK receptors of N. benthamiana was assessed in control probes using microsomes from untreated leaves (Figure 2). […]
A general note: In western blotting, separated proteins are transferred to a membrane and probed.

In another test the test system is PpCHK4. The test is described as follows: specific binding of 3H-iP, tobacco leaf microsomes. Further details: species or system Physcomitrium patens. The settings on record: PpCHK4 sensory module; expression confirmed by immunoblotting. The protocol:
as §1, §2, §3

Test [14] concerns PpCHK3. The settings on record: previous data; cited from earlier work.
[15] abbreviates: PpCHK1, competition with 3H-iP, Cheng-Prusoff calculation method, ± SE, read-out: KD of CK-Receptor Complexes.
Where [16] appears, read: PpCHK1, competition with 3H-iP, alternative calculation method (Appendix A), ± SE, read-out: KD of CK-receptor complexes.
Where [17] appears, read: PpCHK2, competition with 3H-iP, Cheng-Prusoff calculation method, ± SE, read-out: KD of CK-Receptor Complexes.
The mark [18] stands for this setting: PpCHK2, competition with 3H-iP, alternative calculation method (Appendix A), ± SE, read-out: KD of CK-receptor complexes.
The mark [19] stands for this setting: SmCHK4a, competition with 3H-iP, Cheng-Prusoff calculation method, ± SE, read-out: KD of CK-Receptor Complexes.
Where [20] appears, read: SmCHK4a, competition with 3H-iP, alternative calculation method (Appendix A), ± SE, read-out: KD of CK-receptor complexes.
Where [21] appears, read: SmCHK6, competition with 3H-iP, Cheng-Prusoff calculation method, ± SE, read-out: KD of CK-Receptor Complexes.
Where [22] appears, read: SmCHK6, competition with 3H-iP, alternative calculation method (Appendix A), ± SE, read-out: KD of CK-receptor complexes.
The mark [23] stands for this setting: PaCHK1, competition with 3H-iP, Cheng-Prusoff calculation method, ± SE, read-out: KD of CK-Receptor Complexes.
[24] abbreviates: PaCHK1, competition with 3H-iP, alternative calculation method (Appendix A), ± SE, read-out: KD of CK-receptor complexes.
The mark [25] stands for this setting: PaCHK2, competition with 3H-iP, Cheng-Prusoff calculation method, ± SE, read-out: KD of CK-Receptor Complexes.
Where [26] appears, read: PaCHK2, competition with 3H-iP, alternative calculation method (Appendix A), ± SE, read-out: KD of CK-receptor complexes.
Setting [27] is: KD for PaCHK1 divided by KD for PaCHK2, Table 1 values.
Where [28] appears, read: read-out: KD of CK-Receptor Complexes.
Where [29] appears, read: read-out: KD of CK-receptor complexes.

Like-named read-outs stand apart in the source and are kept apart here.

T2 sequence (A0A068JG96 entry or part of it): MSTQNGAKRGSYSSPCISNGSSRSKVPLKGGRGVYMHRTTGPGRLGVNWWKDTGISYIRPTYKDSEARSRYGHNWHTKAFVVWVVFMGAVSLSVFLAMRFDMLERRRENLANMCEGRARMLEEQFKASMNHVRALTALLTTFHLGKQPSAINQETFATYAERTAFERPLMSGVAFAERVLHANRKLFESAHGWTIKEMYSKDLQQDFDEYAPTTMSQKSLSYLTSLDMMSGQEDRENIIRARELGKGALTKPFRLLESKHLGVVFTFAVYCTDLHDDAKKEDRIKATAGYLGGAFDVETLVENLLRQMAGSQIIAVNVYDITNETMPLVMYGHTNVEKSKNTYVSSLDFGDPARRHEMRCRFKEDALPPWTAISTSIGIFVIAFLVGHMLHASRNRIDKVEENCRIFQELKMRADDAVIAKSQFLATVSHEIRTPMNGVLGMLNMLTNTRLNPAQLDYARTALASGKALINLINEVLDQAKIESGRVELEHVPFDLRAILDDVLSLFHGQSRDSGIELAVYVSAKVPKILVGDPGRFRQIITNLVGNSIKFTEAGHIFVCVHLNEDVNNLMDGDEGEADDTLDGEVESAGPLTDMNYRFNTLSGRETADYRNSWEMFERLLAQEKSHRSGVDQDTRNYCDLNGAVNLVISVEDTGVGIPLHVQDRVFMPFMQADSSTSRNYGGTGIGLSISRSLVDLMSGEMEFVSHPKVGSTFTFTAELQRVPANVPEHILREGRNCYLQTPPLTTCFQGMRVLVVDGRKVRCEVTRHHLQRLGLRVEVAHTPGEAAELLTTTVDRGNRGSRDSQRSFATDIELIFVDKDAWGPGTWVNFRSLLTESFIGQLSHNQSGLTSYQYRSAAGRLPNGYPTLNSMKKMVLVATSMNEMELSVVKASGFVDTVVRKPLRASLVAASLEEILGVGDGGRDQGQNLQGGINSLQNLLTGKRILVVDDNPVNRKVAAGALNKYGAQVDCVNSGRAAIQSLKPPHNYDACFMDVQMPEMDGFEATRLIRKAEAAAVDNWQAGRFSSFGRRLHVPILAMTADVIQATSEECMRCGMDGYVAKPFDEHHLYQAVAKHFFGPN
T4 sequence (D8SUD5 entry or part of it): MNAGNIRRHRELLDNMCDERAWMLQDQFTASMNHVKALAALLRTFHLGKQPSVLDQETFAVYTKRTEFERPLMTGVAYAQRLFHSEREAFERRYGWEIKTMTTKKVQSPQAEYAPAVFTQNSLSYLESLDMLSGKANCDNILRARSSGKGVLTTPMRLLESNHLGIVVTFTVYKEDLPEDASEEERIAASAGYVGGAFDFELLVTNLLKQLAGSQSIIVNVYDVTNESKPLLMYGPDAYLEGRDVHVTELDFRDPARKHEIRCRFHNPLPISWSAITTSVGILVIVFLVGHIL
T3 sequence (D8R9F4 entry or part of it): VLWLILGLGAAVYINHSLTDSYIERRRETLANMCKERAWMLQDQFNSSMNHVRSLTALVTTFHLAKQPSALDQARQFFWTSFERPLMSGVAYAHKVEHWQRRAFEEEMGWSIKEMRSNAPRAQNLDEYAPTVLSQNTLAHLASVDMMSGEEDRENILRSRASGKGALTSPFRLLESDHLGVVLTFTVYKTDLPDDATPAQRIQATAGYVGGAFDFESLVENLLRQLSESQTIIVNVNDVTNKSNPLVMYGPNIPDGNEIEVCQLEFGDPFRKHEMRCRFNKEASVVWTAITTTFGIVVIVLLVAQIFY
T1 sequence (A0A068JFF6 entry or part of it): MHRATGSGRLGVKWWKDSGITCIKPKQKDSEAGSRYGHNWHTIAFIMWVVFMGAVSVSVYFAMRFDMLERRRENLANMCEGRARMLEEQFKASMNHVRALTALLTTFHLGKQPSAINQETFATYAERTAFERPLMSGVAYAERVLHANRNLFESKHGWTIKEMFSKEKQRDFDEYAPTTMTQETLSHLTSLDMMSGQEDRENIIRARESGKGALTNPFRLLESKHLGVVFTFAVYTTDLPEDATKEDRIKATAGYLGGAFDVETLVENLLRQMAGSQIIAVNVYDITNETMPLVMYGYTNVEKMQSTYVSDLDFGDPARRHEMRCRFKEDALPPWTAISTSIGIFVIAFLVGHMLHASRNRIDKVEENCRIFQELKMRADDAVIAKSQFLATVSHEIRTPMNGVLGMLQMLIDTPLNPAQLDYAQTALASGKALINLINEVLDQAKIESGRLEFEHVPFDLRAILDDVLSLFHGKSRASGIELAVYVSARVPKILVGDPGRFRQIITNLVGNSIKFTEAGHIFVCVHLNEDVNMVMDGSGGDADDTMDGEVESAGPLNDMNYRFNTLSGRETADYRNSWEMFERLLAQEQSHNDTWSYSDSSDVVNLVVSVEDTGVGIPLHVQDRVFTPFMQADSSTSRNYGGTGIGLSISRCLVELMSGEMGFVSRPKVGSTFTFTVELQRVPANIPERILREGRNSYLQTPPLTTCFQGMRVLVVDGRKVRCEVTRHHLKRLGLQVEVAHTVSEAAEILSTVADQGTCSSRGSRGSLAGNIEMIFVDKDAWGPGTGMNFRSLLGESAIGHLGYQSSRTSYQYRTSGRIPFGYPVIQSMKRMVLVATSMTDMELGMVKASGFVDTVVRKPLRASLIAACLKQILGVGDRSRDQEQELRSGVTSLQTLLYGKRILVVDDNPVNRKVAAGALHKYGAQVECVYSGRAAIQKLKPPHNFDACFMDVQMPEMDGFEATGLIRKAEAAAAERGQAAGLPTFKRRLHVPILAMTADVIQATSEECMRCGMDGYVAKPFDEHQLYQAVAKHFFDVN

Take `c1ccc(CNc2ncnc3nc[nH]c23)cc1` [BA, benzyladenine]: the Kd – broadly, the free concentration of one partner at which half of the binding sites on the other are occupied at equilibrium, for simple one-to-one binding – on PpCHK1 [1] (setting [15]) is 13.9 ± 0.1 nM; on PpCHK1 [1] (setting [16]), 12.8 ± 3 nM; on PpCHK2 [2] (setting [17]) it was 10.7 ± 0.5 nM; on PpCHK2 [2] (setting [18]), 14.9 ± 1.2 nM; on SmCHK4a [3] (setting [19]) it was 6.91 ± 0.34 nM; at SmCHK4a [3] (setting [20]), 3.2 ± 0.8 nM. For the same compound, the Kd was 2.28 ± 0.7 nM at SmCHK6 [4] (setting [21]); 2.9 ± 0.4 nM on SmCHK6 [4] (setting [22]); 61.9 ± 1.3 nM on PaCHK1 [5] (setting [23]); 38.4 ± 2.6 nM on PaCHK1 [5] (setting [24]); 13.5 ± 1.6 nM on PaCHK2 [6] (setting [25]); 12.3 ± 3.9 nM at PaCHK2 [6] (setting [26]).
For `CC(CO)CCNc1ncnc2nc[nH]c12` (stereo not drawn) [DZ, dihydrozeatin], the dissociation constant (Kd) at PpCHK1 [1] (setting [15]) is 507 ± 42 nM; on PpCHK1 [1] (setting [16]), 676 ± 14.4 nM; on PpCHK2 [2] (setting [17]) it was 323 ± 97 nM; at PpCHK2 [2] (setting [18]), 501 ± 74.7 nM; at PaCHK1 [5] (setting [23]), 377 ± 27 nM; at PaCHK1 [5] (setting [24]) it was 244 ± 25.9 nM. In addition, the dissociation constant Kd at PaCHK2 [6] (setting [25]) was 22.4 ± 2.9 nM; at PaCHK2 [6] (setting [26]), 29.1 ± 5.4 nM. In the test with PaCHK1 [5] (setting [27]), the “PaCHK1/CHK2 affinity ratio (KD1/KD2)” value is on record as 16.8.
As for `O=C(Nc1ccccc1)Nc1cnns1` [TD, thidiazuron], the “PpCHK1/CHK2 affinity ratio (KD1/KD2)” value on PpCHK1 [1] (KD for PpCHK1 divided by KD for PpCHK2, Table 1 values) amounted to 1.83. For the same compound, the equilibrium dissociation constant (Kd) at PpCHK1 [1] (setting [15]) was 23.8 ± 5.4 nM; at PpCHK2 [2] (setting [17]), 13 ± 0.2 nM; at PpCHK2 [2] (setting [18]) it was 11.9 ± 2.8 nM; at PaCHK1 [5] (setting [23]), 6.7 ± 0.21 nM; at PaCHK1 [5] (setting [24]), 3.8 ± 0.6 nM; on PaCHK2 [6] (setting [25]), 64.5 ± 6.4 nM. Further, the Kd on PaCHK2 [6] (setting [26]) was 244 ± 94.8 nM. The “PaCHK1/CHK2 affinity ratio (KD1/KD2)” value in the test on PaCHK1 [5] (setting [27]) was found to be 0.1.
In the case of `C/C(=C/CNc1ncnc2nc[nH]c12)CO` [cZ, cis-zeatin], the “PpCHK1/CHK2 affinity ratio (KD1/KD2)” value at PpCHK1 [1] amounted to 3.01. Further, the “cZ/tZ KD ratio” value on PpCHK1 [1] worked out at 2.79; at PpCHK2 [2], 1.89; at SmCHK4a [3], 2.58; with PaCHK1 [5], 55.4; with PaCHK2 [6], 17.0. Moreover, the Kd at PpCHK1 [1] (setting [28]) was 103 ± 15 nM; at PpCHK1 [1] (setting [29]), 94.4 ± 26.3 nM; on PpCHK2 [2] (setting [28]), 34.2 ± 9.3 nM; at PpCHK2 [2] (setting [29]), 48.6 ± 9.7 nM; at SmCHK4a [3] (setting [28]), 20.6 ± 2.6 nM; at SmCHK4a [3] (setting [29]) it was 20 ± 4.9 nM. The Kd at SmCHK6 [4] (setting [28]) turned out to be 16.6 ± 2.4 nM; on SmCHK6 [4] (setting [29]), 39 ± 5.1 nM; on PaCHK1 [5] (setting [28]), 419 ± 56 nM; at PaCHK1 [5] (setting [29]), 286 ± 69.4 nM; at PaCHK2 [6] (setting [28]) it was 17.9 ± 2.9 nM; on PaCHK2 [6] (setting [29]), 22.7 ± 3.2 nM. The “PaCHK1/CHK2 affinity ratio (KD1/KD2)” value with PaCHK1 [5] was 23.4. The “cZ/tZ KD ratio (affinity for tZ exceeds that for cZ)” value in the test on AHK3 is 376 folds.
Consider `CC(C)=CCNc1ncnc2nc[nH]c12` [iP, isopentenyladenine], for which the dissociation constant (Kd) at PpCHK1 [1] (setting [16]) is 1.2 ± 0.3 nM; on PpCHK2 [2] (setting [18]), 0.9 nM; on SmCHK4a [3] (setting [19]), 1.6 ± 0.13 nM; on SmCHK4a [3] (setting [20]) it was 0.8 ± 0.2 nM; on SmCHK6 [4] (setting [21]), 1.7 ± 0.16 nM; on SmCHK6 [4] (setting [22]), 2.5 ± 0.8 nM. Also, the dissociation constant Kd at PaCHK1 [5] (setting [23]) was 3.6 ± 0.17 nM; on PaCHK1 [5] (setting [24]), 3 ± 0.7 nM; at PaCHK2 [6] (setting [25]) it was 2.2 ± 0.08 nM; on PpCHK1 [7] it was 1.59 nM; at PpCHK2 [8], 1.45 nM; at SmCHK4a [9] it was 1.56 nM. The dissociation constant (Kd) on SmCHK6 [10] was found to be 1.75 nM; at PaCHK1 [11], 3.89 nM; on PaCHK2 [12] it was 2.03 nM. Besides, the “binding of labeled iP” value in the test with PpCHK3 [13] and in the test with PpCHK4 was “did not recognize” in each case.
As for `C/C(=C\CNc1ncnc2[nH]cnc12)CO` [tZ, trans-zeatin], the equilibrium dissociation constant (Kd) on PpCHK1 [1] (setting [15]) is 36.9 ± 2 nM; at PpCHK1 [1] (setting [16]) it was 24.8 ± 2.9 nM; on PpCHK2 [2] (setting [17]) it was 18.1 ± 1.5 nM; at PpCHK2 [2] (setting [18]), 12.4 ± 1.5 nM; on PaCHK1 [5] (setting [28]), 7.57 ± 0.37 nM; at PaCHK1 [5] (setting [29]), 5.9 ± 1 nM. The Kd came to 1.05 ± 0.09 nM on PaCHK2 [6] (setting [28]) and 1.3 ± 0.4 nM on PaCHK2 [6] (setting [29]). The “PpCHK1/CHK2 affinity ratio (KD1/KD2)” value on PpCHK1 [1] (microsomes) is on record as 2.04. In the test with PaCHK1 [5], the “PaCHK1/CHK2 affinity ratio (KD1/KD2)” value is 7.21. In addition, the “binding of labeled tZ” value in the test on PpCHK3 [14] was “lacks the ability to bind”.

Values taken from publication PMC8657898, “Cytokinin Perception in Ancient Plants beyond Angiospermae” (International Journal of Molecular Sciences, 2021).
